From patent US10835533B2, “1 -((3S,4R)-4-(3-fluorophenyl)-1-(2-methoxyethyl)pyrrolidin-3-yl)-3-(4-methyl-3-(2-methylpyrimidin-5-yl)-1-phenyl-1H-pyrazol-5-yl)urea as a TrkA kinase inhibitor” (Array BioPharma Inc., priority 2014, dated 2020)

What was measured:
Assay type in all cases: biochemical
off-target kinases = assay: KinaseProfiler off-target kinase profiling, full kinase panel (Example H); settings: 10 μM, ATP near the Km
Protocol: (§1) Compound 1 was tested for off-target kinase activity at a concentration of 10 μM by Millipore, Inc. in their KinaseProfiler™ service against all the kinases available in their full kinase panel. Compound 1 was run in duplicate at a concentration of ATP near the Km for each individual kinase according to Millipore's specifications. Data are reported as percent of control (POC) and are the average of the two replicates.

TEC Activated = target: T1, TEC Activated (Homo sapiens, UniProt P42680); assay: KinaseProfiler kinase profiling; settings: 10 μM, ATP near Km
T1 construct: purchased Millipore, Inc. (KinaseProfiler service)
Protocol: as §1

PhKgamma2 = target: T2, PhKgamma2 (Homo sapiens, UniProt P15735); assay: KinaseProfiler kinase profiling; settings: 10 μM, ATP near Km
T2 construct: purchased Millipore, Inc. (KinaseProfiler service)
Protocol: as §1

NEK3 = target: T3, NEK3 (Homo sapiens, UniProt P51956); assay: KinaseProfiler kinase profiling; settings: 10 μM, ATP near Km
T3 construct: purchased Millipore, Inc. (KinaseProfiler service)
Protocol: as §1

VRK2 = target: T4, VRK2 (Homo sapiens, UniProt Q86Y07); assay: KinaseProfiler kinase profiling; settings: 10 μM, ATP near Km
T4 construct: purchased Millipore, Inc. (KinaseProfiler service)
Protocol: as §1

BTK = target: T5, BTK (Homo sapiens, UniProt Q06187); assay: KinaseProfiler kinase profiling; settings: 10 μM, ATP near Km
T5 construct: purchased Millipore, Inc. (KinaseProfiler service)
Protocol: as §1

MuSK = target: T6, MuSK (Homo sapiens, UniProt O15146); assay: KinaseProfiler kinase profiling; settings: 10 μM, ATP near Km
T6 construct: purchased Millipore, Inc. (KinaseProfiler service)
T6 sequence (O15146 24-869): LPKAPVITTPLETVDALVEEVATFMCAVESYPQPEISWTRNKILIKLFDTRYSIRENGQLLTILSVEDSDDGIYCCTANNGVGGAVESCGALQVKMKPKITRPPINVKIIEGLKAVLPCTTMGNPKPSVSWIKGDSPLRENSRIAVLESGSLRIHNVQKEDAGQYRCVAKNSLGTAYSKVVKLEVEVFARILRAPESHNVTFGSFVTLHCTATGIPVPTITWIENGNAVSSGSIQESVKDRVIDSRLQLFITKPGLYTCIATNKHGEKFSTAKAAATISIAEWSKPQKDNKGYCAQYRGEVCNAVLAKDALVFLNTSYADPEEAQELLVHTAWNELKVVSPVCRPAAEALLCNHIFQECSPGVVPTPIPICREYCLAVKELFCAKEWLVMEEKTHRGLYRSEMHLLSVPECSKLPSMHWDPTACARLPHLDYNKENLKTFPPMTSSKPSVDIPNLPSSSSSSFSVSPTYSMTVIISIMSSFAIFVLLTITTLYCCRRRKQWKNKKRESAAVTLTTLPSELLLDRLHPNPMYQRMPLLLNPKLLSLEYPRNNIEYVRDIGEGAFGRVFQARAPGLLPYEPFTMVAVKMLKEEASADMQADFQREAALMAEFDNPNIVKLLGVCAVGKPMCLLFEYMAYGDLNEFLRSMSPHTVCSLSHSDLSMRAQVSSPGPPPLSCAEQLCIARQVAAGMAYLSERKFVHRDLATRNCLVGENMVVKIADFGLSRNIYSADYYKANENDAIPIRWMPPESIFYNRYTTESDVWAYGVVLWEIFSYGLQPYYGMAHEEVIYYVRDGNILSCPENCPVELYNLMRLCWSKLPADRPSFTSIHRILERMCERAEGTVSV
Protocol: as §1

Flt1 = target: T7, Flt1 (Homo sapiens, UniProt P17948); assay: KinaseProfiler kinase profiling; settings: 10 μM, ATP near Km
T7 construct: purchased Millipore, Inc. (KinaseProfiler service)
Protocol: as §1

DYRK2 = target: T8, DYRK2 (Homo sapiens, UniProt Q92630); assay: KinaseProfiler kinase profiling; settings: 10 μM, ATP near Km
T8 construct: purchased Millipore, Inc. (KinaseProfiler service)
Protocol: as §1

JAK2 = target: T9, JAK2 (Homo sapiens, UniProt O60674); assay: KinaseProfiler kinase profiling; settings: 10 μM, ATP near Km
T9 construct: purchased Millipore, Inc. (KinaseProfiler service)
T9 sequence (O60674 whole entry): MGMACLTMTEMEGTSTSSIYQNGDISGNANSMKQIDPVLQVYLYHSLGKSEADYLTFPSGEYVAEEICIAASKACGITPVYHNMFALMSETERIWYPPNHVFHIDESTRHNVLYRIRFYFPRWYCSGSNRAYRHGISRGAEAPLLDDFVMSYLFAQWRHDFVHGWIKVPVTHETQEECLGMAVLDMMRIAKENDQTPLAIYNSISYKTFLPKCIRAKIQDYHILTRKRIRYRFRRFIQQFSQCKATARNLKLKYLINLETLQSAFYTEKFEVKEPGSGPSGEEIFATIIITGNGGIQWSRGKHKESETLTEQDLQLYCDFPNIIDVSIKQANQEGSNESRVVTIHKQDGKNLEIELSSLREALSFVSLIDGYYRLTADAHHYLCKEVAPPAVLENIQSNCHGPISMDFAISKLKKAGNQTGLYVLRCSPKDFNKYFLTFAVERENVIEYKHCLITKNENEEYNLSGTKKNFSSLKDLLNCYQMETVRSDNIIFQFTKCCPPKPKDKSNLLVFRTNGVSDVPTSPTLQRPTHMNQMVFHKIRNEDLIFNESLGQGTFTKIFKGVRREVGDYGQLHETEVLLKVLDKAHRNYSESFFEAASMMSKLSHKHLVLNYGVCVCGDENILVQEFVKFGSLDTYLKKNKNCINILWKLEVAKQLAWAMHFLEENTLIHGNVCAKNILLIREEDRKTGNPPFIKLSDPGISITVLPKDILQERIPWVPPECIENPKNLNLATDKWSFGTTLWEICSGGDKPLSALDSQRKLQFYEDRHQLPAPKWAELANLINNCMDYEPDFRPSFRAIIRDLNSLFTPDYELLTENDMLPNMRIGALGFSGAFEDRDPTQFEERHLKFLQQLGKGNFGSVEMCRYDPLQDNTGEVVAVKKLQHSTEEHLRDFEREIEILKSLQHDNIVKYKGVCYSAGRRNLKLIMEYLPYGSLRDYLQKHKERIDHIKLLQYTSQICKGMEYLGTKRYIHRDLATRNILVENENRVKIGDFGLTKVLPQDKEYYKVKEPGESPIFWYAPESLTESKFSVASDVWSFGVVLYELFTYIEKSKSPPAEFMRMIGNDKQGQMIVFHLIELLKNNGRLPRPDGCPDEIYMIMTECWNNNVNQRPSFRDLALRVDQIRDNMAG
Protocol: as §1

KIT = target: T10, KIT (Homo sapiens, UniProt P10721); assay: KinaseProfiler kinase profiling; settings: 10 μM, ATP near Km
T10 construct: purchased Millipore, Inc. (KinaseProfiler service)
T10 sequence (P10721 26-976): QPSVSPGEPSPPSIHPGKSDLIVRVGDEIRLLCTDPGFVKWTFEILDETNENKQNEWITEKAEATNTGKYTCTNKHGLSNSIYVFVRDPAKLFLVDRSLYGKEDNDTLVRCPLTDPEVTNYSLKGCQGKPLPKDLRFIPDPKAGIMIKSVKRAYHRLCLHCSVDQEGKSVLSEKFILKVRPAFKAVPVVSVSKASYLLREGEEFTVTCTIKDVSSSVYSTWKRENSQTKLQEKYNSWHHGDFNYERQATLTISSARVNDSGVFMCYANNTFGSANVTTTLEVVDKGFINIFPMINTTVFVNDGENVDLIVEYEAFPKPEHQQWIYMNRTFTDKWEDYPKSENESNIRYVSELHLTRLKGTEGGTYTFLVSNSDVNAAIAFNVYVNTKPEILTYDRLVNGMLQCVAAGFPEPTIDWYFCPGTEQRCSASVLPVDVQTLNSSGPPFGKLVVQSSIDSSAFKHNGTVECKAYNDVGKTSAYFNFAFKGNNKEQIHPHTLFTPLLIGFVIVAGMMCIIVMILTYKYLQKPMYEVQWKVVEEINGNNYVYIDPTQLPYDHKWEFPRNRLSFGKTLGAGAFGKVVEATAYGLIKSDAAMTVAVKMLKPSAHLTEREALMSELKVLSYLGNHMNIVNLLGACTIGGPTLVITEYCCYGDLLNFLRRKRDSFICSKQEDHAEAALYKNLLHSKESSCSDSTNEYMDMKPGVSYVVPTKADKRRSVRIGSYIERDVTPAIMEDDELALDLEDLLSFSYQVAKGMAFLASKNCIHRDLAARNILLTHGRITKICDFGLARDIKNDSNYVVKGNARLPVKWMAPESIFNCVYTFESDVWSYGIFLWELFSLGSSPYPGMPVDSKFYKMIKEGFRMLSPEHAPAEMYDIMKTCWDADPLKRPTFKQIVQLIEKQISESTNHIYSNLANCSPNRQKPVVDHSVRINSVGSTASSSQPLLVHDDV
Protocol: as §1

FAK2 = target: T11, FAK2 (Homo sapiens, UniProt Q14289); assay: KinaseProfiler kinase profiling; settings: 10 μM, ATP near Km
T11 construct: purchased Millipore, Inc. (KinaseProfiler service)
Protocol: as §1

TAO2 = target: T12, TAO2 (Homo sapiens, UniProt Q9UL54); assay: KinaseProfiler kinase profiling; settings: 10 μM, ATP near Km
T12 construct: purchased Millipore, Inc. (KinaseProfiler service)
Protocol: as §1

PrKX = target: T13, PrKX (Homo sapiens, UniProt P51817); assay: KinaseProfiler kinase profiling; settings: 10 μM, ATP near Km
T13 construct: purchased Millipore, Inc. (KinaseProfiler service)
Protocol: as §1

p38beta = target: T14, p38beta (Homo sapiens, UniProt Q15759); assay: KinaseProfiler kinase profiling; settings: 10 μM, ATP near Km
T14 construct: purchased Millipore, Inc. (KinaseProfiler service)
T14 sequence (Q15759 whole entry): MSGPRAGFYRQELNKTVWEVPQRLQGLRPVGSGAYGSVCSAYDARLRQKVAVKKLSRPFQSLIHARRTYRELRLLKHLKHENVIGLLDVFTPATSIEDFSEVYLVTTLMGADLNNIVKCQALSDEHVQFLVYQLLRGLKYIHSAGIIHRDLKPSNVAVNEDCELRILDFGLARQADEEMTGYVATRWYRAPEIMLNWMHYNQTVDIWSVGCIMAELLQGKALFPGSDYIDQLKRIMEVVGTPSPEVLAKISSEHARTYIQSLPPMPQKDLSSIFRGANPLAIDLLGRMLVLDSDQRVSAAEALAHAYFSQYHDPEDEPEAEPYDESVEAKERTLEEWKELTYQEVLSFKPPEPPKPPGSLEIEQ
Protocol: as §1

PAK6 = target: T15, PAK6 (Homo sapiens, UniProt Q9NQU5); assay: KinaseProfiler kinase profiling; settings: 10 μM, ATP near Km
T15 construct: purchased Millipore, Inc. (KinaseProfiler service)
Protocol: as §1

PTK6 = target: T16, PTK6 (Homo sapiens, UniProt Q13882); assay: KinaseProfiler kinase profiling; settings: 10 μM, ATP near Km
T16 construct: purchased Millipore, Inc. (KinaseProfiler service)
Protocol: as §1

JAK3 = target: T17, JAK3 (Homo sapiens, UniProt P52333); assay: KinaseProfiler kinase profiling; settings: 10 μM, ATP near Km
T17 construct: purchased Millipore, Inc. (KinaseProfiler service)
Protocol: as §1

ALK = target: T18, ALK (Homo sapiens, UniProt Q9UM73); assay: KinaseProfiler kinase profiling; settings: 10 μM, ATP near Km
T18 construct: purchased Millipore, Inc. (KinaseProfiler service)
Protocol: as §1

BLK = target: T19, BLK (Homo sapiens, UniProt P51451); assay: KinaseProfiler kinase profiling; settings: 10 μM, ATP near Km
T19 construct: purchased Millipore, Inc. (KinaseProfiler service)
Protocol: as §1

Syk = target: T20, Syk (Homo sapiens, UniProt P43405); assay: KinaseProfiler kinase profiling; settings: 10 μM, ATP near Km
T20 construct: purchased Millipore, Inc. (KinaseProfiler service)
Protocol: as §1

IRR = target: T21, IRR (Homo sapiens, UniProt P14616); assay: KinaseProfiler kinase profiling; settings: 10 μM, ATP near Km
T21 construct: purchased Millipore, Inc. (KinaseProfiler service)
Protocol: as §1

ROCK-I = target: T22, ROCK-I (Homo sapiens, UniProt Q13464); assay: KinaseProfiler kinase profiling; settings: 10 μM, ATP near Km
T22 construct: purchased Millipore, Inc. (KinaseProfiler service)
Protocol: as §1

CDK1/cyclinB = target: T23, CDK1/cyclinB (Homo sapiens, UniProt P06493); assay: KinaseProfiler kinase profiling; settings: 10 μM, ATP near Km
T23 construct: purchased Millipore, Inc. (KinaseProfiler service)
Protocol: as §1

Rsk3 = target: T24, Rsk3 (Homo sapiens, UniProt Q15349); assay: KinaseProfiler kinase profiling; settings: 10 μM, ATP near Km
T24 construct: purchased Millipore, Inc. (KinaseProfiler service)
Protocol: as §1

SGK2 = target: T25, SGK2 (Homo sapiens, UniProt Q9HBY8); assay: KinaseProfiler kinase profiling; settings: 10 μM, ATP near Km
T25 construct: purchased Millipore, Inc. (KinaseProfiler service)
Protocol: as §1

CK1_y = assay: KinaseProfiler kinase profiling; settings: 10 μM, ATP near Km
Protocol: as §1

DDR2 = target: T26, DDR2 (Homo sapiens, UniProt Q16832); assay: KinaseProfiler kinase profiling; settings: 10 μM, ATP near Km
T26 construct: purchased Millipore, Inc. (KinaseProfiler service)
Protocol: as §1

Lck = target: T27, Lck (Homo sapiens, UniProt P06239); assay: KinaseProfiler kinase profiling; settings: 10 μM, ATP near Km
T27 construct: purchased Millipore, Inc. (KinaseProfiler service)
Protocol: as §1

CDK7/cyclinH/MAT1 = target: T28, CDK7/cyclinH/MAT1 (Homo sapiens, UniProt P50613); assay: KinaseProfiler kinase profiling; settings: 10 μM, ATP near Km
T28 construct: purchased Millipore, Inc. (KinaseProfiler service)
Protocol: as §1

WNK3 = target: T29, WNK3 (Homo sapiens, UniProt Q9BYP7); assay: KinaseProfiler kinase profiling; settings: 10 μM, ATP near Km
T29 construct: purchased Millipore, Inc. (KinaseProfiler service)
Protocol: as §1

CAMK1 = target: T30, CAMK1 (Homo sapiens, UniProt Q14012); assay: KinaseProfiler kinase profiling; settings: 10 μM, ATP near Km
T30 construct: purchased Millipore, Inc. (KinaseProfiler service)
T30 sequence (Q14012 whole entry): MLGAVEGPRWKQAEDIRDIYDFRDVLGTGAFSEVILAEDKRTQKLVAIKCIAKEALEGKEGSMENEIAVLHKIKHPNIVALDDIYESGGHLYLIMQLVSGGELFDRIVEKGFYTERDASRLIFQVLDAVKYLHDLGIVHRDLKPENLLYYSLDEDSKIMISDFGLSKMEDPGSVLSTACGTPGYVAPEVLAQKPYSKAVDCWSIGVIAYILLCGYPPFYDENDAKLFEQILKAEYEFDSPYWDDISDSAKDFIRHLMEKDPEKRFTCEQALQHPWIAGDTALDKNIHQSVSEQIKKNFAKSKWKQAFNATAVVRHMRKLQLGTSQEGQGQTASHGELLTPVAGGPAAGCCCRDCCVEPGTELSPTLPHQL
Protocol: as §1

PDK1 = target: T31, PDK1 (Homo sapiens, UniProt O15530); assay: KinaseProfiler kinase profiling; settings: 10 μM, ATP near Km
T31 construct: purchased Millipore, Inc. (KinaseProfiler service)
Protocol: as §1

EphA8 = target: T32, EphA8 (Homo sapiens, UniProt P29322); assay: KinaseProfiler kinase profiling; settings: 10 μM, ATP near Km
T32 construct: purchased Millipore, Inc. (KinaseProfiler service)
Protocol: as §1

p38gamma = target: T33, p38gamma (Homo sapiens, UniProt P53778); assay: KinaseProfiler kinase profiling; settings: 10 μM, ATP near Km
T33 construct: purchased Millipore, Inc. (KinaseProfiler service)
Protocol: as §1

KDR = target: T34, KDR (Homo sapiens, UniProt P35968); assay: KinaseProfiler kinase profiling; settings: 10 μM, ATP near Km
T34 construct: purchased Millipore, Inc. (KinaseProfiler service)
T34 sequence (P35968 20-1356): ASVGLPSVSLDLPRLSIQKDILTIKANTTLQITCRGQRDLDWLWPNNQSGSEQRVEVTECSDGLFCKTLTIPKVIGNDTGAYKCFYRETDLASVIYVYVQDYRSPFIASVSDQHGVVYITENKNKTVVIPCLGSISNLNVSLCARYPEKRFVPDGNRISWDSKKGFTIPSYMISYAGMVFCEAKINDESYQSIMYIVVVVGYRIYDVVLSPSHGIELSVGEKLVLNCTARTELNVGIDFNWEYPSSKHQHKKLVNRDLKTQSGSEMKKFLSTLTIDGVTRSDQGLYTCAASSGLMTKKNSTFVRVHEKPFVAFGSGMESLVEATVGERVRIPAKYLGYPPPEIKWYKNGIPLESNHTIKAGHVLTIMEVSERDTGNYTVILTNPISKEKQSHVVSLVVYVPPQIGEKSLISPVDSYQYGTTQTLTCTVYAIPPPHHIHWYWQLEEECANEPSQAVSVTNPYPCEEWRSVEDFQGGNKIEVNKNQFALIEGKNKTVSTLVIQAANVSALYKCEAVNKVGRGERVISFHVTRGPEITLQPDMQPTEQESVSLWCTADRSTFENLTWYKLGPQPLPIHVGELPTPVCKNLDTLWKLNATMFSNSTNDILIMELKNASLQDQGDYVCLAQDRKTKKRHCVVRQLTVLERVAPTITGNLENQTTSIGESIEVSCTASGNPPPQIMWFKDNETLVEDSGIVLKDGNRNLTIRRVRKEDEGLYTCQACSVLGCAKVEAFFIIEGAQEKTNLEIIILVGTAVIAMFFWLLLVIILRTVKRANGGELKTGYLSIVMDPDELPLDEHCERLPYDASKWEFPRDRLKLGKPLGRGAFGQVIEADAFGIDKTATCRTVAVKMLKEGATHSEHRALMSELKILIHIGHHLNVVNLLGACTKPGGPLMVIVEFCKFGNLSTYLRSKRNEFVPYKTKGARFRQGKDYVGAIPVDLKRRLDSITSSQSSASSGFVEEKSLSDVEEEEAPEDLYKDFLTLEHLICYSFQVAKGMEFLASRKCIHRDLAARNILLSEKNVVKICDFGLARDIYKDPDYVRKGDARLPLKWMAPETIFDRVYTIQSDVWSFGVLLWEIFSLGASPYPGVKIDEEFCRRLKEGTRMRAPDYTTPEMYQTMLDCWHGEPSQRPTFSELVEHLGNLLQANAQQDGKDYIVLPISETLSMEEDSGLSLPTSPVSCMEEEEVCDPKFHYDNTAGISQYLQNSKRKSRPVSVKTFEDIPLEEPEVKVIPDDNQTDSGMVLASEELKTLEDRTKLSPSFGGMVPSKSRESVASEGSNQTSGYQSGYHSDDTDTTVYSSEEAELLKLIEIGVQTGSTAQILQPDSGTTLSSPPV
Protocol: as §1

MKK4_m = target: T35, MKK4_m (Mus musculus, UniProt P47809); assay: KinaseProfiler kinase profiling; settings: 10 μM, ATP near Km
T35 construct: purchased Millipore, Inc. (KinaseProfiler service)
Protocol: as §1

FGFR1 = target: T36, FGFR1 (Homo sapiens, UniProt P11362); assay: KinaseProfiler kinase profiling; settings: 10 μM, ATP near Km
T36 construct: purchased Millipore, Inc. (KinaseProfiler service)
Protocol: as §1

MST2 = target: T37, MST2 (Homo sapiens, UniProt Q13188); assay: KinaseProfiler kinase profiling; settings: 10 μM, ATP near Km
T37 construct: purchased Millipore, Inc. (KinaseProfiler service)
Protocol: as §1

NEK6 = target: T38, NEK6 (Homo sapiens, UniProt Q9HC98); assay: KinaseProfiler kinase profiling; settings: 10 μM, ATP near Km
T38 construct: purchased Millipore, Inc. (KinaseProfiler service)
Protocol: as §1

GSK3alpha = target: T39, GSK3alpha (Homo sapiens, UniProt P49840); assay: KinaseProfiler kinase profiling; settings: 10 μM, ATP near Km
T39 construct: purchased Millipore, Inc. (KinaseProfiler service)
Protocol: as §1

With `COCCN1C[C@@H](NC(=O)Nc2c(C)c(-c3cnc(C)nc3)nn2-c2ccccc2)[C@H](c2cccc(F)c2)C1` [Compound 1, 1-((3S,4R)-4-(3-fluorophenyl)-1-(2-methoxyethyl)pyrrolidin-3-yl)-3-(4-methyl-3-(2-methylpyrimidin-5-yl)-1-phenyl-1H-pyrazol-5-yl)urea] as the molecule, how does the “activity against off-target kinases” value (off-target kinases) read?
Its value is “largely inactive”.

What about the “Avg POC” value (TEC Activated) of the same molecule?
Its value is 97 POC.

And the “Avg POC” value (PhKgamma2)?
Its value is 108 POC.

What about the “Avg POC” value (NEK3) of the same molecule?
The value was 104.5 POC.

What about the “Avg POC” value (VRK2) of the same molecule?
Its value is 96 POC.

What about the “Avg POC” value (BTK) of the same molecule?
Its value is 114 POC.

And the “Avg POC” value (MuSK)?
The value was 95 POC.

What about the “Avg POC” value (Flt1) of the same molecule?
Its value is 97 POC.

And the “Avg POC” value (DYRK2)?
The value was 102 POC.

What about the “Avg POC” value (JAK2) of the same molecule?
The value was 126 POC.

And the “Avg POC” value (KIT)?
The value was 97.5 POC.

And the “Avg POC” value (FAK2)?
The value was 92.5 POC.

And the “Avg POC” value (TAO2)?
The value was 100 POC.

And the “Avg POC” value (PrKX)?
The value was 115.5 POC.

What about the “Avg POC” value (p38beta) of the same molecule?
Its value is 102 POC.

What about the “Avg POC” value (PAK6) of the same molecule?
The value was 114.5 POC.

And the “Avg POC” value (PTK6)?
Its value is 106 POC.

What about the “Avg POC” value (JAK3) of the same molecule?
Its value is 95.5 POC.

What about the “Avg POC” value (ALK) of the same molecule?
The value was 89 POC.

And the “Avg POC” value (BLK)?
The value was 82.5 POC.

And the “Avg POC” value (Syk)?
Its value is 95.5 POC.

What about the “Avg POC” value (IRR) of the same molecule?
Its value is 104.5 POC.

What about the “Avg POC” value (ROCK-I) of the same molecule?
Its value is 98.5 POC.

And the “Avg POC” value (CDK1/cyclinB)?
The value was 108 POC.

What about the “Avg POC” value (Rsk3) of the same molecule?
The value was 107.5 POC.

And the “Avg POC” value (SGK2)?
The value was 112 POC.

What about the “Avg POC” value (CK1_y) of the same molecule?
The value was 91.5 POC.

And the “Avg POC” value (DDR2)?
Its value is 121.5 POC.

What about the “Avg POC” value (Lck) of the same molecule?
Its value is 94 POC.

What about the “Avg POC” value (CDK7/cyclinH/MAT1) of the same molecule?
Its value is 99 POC.

And the “Avg POC” value (WNK3)?
The value was 115.5 POC.

And the “Avg POC” value (CAMK1)?
The value was 104.5 POC.

And the “Avg POC” value (PDK1)?
The value was 104 POC.

What about the “Avg POC” value (EphA8) of the same molecule?
The value was 110 POC.

What about the “Avg POC” value (p38gamma) of the same molecule?
The value was 114.5 POC.

And the “Avg POC” value (KDR)?
Its value is 102.5 POC.

And the “Avg POC” value (MKK4_m)?
Its value is 125 POC.

What about the “Avg POC” value (FGFR1) of the same molecule?
Its value is 117 POC.

What about the “Avg POC” value (MST2) of the same molecule?
The value was 102 POC.

What about the “Avg POC” value (NEK6) of the same molecule?
The value was 96 POC.

What about the “Avg POC” value (GSK3alpha) of the same molecule?
Its value is 109.5 POC.
